Test results: patent US11547697B2, “Heterocyclic compounds and uses thereof” (MILLENNIUM PHARMACEUTICALS, INC., priority 2009, dated 2023)
Where two headings read alike, the source gives them in different places.

What was measured:
Type in all cases: biochemical
p110α/p85α = p110α/p85α (Homo sapiens (Human), UniProt P42336); assay: PI 3-Kinase (human) HTRF assay, p110α/p85α
p110β/p85α = p110β/p85α (Homo sapiens (Human), UniProt P42338); assay: PI 3-Kinase (human) HTRF assay, p110β/p85α
p110γ = p110γ (Homo sapiens (Human), UniProt P48736); assay: PI 3-Kinase (human) HTRF assay, p110γ
[1] = in vitro, read-out: PI3K α IC50
[2] = in vitro, read-out: PI3K β IC50
[3] = in vitro, read-out: PI3K γ IC50

p110γ, sequence (P48736 whole entry): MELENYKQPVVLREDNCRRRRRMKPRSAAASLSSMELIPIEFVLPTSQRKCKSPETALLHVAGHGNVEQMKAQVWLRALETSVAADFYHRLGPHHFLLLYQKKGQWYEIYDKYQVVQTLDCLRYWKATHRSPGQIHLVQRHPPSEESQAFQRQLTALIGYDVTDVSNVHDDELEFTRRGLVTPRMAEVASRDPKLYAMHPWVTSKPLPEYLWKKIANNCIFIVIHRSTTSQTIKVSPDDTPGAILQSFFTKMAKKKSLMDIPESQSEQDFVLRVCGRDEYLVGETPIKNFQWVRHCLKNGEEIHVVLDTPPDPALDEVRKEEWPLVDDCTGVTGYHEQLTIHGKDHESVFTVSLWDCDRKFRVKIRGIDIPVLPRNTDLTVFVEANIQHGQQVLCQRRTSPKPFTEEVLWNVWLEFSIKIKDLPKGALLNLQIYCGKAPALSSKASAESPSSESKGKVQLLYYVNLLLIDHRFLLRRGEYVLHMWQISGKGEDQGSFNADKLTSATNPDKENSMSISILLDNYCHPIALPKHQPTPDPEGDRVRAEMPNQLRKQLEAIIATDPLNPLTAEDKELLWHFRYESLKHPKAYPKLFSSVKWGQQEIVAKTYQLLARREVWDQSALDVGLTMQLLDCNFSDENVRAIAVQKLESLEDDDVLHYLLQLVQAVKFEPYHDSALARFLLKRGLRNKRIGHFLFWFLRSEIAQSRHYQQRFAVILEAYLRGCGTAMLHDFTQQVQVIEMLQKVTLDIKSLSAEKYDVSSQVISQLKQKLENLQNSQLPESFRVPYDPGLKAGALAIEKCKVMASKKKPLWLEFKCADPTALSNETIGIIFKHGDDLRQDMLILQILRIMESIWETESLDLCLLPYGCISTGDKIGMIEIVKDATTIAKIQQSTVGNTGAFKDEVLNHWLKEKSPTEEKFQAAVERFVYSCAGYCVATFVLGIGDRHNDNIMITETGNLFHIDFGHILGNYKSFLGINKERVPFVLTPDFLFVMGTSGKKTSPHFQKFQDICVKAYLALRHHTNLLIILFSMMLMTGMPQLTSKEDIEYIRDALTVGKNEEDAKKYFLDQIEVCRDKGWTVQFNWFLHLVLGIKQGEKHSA
p110β/p85α, sequence (P42338 whole entry): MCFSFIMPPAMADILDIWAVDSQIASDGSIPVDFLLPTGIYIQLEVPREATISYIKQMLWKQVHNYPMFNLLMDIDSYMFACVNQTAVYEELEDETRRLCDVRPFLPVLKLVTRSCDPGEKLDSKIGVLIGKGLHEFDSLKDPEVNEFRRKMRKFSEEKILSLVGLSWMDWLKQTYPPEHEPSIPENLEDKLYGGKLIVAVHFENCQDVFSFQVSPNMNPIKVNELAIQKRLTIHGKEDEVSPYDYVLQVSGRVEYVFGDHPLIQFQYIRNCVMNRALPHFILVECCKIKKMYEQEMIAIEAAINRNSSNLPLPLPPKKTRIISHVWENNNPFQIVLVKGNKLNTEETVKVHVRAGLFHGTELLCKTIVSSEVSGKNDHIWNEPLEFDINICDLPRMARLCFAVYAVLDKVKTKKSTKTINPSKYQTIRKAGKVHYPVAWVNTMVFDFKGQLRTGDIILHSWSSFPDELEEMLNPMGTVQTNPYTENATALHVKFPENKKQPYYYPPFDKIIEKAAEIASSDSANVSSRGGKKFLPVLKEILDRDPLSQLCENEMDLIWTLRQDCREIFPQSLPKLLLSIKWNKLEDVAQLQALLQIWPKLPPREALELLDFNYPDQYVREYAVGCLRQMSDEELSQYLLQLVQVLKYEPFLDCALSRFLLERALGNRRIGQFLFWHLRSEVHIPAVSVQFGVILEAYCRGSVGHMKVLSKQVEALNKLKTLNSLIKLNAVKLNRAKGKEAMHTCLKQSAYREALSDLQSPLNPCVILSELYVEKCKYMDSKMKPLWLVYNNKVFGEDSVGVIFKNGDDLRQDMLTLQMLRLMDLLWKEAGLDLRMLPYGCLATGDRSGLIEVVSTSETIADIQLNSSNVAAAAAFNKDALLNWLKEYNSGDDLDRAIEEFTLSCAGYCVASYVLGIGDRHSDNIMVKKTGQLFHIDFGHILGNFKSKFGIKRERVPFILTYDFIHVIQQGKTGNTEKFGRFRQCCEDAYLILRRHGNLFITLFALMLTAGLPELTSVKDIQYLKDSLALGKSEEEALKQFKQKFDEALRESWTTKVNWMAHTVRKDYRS
p110β/p85α, sequence (P27986 whole entry partner): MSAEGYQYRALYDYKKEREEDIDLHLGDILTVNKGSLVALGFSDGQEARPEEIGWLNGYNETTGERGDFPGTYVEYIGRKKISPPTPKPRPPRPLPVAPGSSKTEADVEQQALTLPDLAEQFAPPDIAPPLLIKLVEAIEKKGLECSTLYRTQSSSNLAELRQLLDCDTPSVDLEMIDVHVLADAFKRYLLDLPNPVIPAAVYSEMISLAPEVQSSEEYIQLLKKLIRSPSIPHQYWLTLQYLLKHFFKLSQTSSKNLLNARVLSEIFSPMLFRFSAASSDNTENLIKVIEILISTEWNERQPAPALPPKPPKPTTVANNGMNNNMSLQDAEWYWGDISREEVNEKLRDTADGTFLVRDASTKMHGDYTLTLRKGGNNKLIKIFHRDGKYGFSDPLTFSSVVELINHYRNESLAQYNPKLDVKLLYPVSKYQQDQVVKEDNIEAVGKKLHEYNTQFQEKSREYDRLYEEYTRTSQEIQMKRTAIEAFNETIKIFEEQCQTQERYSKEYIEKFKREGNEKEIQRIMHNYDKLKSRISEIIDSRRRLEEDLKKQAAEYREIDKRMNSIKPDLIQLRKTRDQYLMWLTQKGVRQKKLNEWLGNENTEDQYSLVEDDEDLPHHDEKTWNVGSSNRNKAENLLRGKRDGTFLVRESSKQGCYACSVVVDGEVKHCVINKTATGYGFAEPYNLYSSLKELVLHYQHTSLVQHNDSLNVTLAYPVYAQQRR
p110α/p85α, sequence (P42336 whole entry): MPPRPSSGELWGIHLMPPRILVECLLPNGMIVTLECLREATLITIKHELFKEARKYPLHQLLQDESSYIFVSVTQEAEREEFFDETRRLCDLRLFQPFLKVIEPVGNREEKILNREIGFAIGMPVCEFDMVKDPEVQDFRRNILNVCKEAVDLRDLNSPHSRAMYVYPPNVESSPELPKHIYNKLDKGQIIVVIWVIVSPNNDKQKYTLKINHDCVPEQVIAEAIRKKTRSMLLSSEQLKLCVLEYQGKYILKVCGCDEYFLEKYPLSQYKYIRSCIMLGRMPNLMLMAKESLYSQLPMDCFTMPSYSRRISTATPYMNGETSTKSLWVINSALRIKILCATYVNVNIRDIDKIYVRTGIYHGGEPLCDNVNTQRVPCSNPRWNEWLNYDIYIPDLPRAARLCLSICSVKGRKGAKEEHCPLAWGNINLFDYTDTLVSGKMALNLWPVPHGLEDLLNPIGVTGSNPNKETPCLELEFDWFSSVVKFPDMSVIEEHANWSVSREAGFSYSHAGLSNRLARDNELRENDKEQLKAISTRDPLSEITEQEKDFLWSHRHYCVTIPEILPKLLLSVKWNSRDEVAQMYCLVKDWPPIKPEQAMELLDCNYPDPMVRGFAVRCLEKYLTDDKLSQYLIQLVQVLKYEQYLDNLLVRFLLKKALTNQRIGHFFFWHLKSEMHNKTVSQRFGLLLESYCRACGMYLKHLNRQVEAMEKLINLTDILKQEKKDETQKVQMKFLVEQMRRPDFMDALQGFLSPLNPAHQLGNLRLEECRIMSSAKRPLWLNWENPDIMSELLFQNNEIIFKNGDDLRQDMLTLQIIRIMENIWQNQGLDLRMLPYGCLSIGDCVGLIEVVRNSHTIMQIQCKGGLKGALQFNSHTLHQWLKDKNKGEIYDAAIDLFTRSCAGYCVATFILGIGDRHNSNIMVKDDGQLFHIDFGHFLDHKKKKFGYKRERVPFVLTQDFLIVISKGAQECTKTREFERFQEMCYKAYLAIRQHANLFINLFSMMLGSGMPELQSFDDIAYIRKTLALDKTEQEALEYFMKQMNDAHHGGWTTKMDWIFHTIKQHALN
p110α/p85α, sequence (P27986 whole entry partner): as the sequence (P27986 whole entry partner) above

SMILES | IC50 (p110α/p85α; [1]) | IC50 (p110β/p85α; [2]) | IC50 (p110γ; [3]) | IC50 (p110α/p85α; read-out: PI3K α In Vitro IC50) | IC50 (p110β/p85α; read-out: PI3K β In Vitro IC50) | IC50 (p110γ; read-out: PI3K γ In Vitro IC50)
Nc1cn2cc(-c3ccc4oc(N)nc4c3)ccc2n1 [compound 245] | < 1000 nM | < 10000 nM | < 1000 nM | – | – | –
COCCn1cnc2ccc(-c3ccc4oc(N)nc4c3)cc2c1=O [compound 272] | < 1000 nM | < 10000 nM | < 10000 nM | – | – | –
Nc1nc2cc(-c3ccc4ncn(CCN5CCOCC5)c(=O)c4c3)ccc2o1 [compound 289] | < 1000 nM | < 10000 nM | < 1000 nM | – | – | –
C[C@H]1CN(c2cnc3ccc(-c4ccc5nc(N)sc5c4)cc3n2)CCN1 [compound 308] | < 1000 nM | < 1000 nM | < 10000 nM | – | – | –
C[C@H]1CN(c2cnc3ccc(-c4ccc5nc(N)oc5c4)cc3n2)CCN1 [compound 309] | < 1000 nM | < 1000 nM | < 10000 nM | – | – | –
Nc1nc2cc(-c3ccc4ncc(C(=O)N(CCO)CCO)n4c3)ccc2o1 [compound 316] | < 1000 nM | < 10000 nM | < 10000 nM | – | – | –
Nc1nc2cc(-c3ccn4ncc(C(=O)N5CCCC5)c4c3)ccc2o1 [compound 346] | < 100 nM | < 10000 nM | < 1000 nM | – | – | –
Nc1nc2cc(-c3ccn4ncc(C(=O)N5CCOCC5)c4c3)ccc2o1 [compound 347] | < 1000 nM | < 10000 nM | < 1000 nM | – | – | –
Cc1cc(-c2ccc3ncc(C(=O)N4CCOCC4)n3c2)cc2nc(N)oc12 [compound 364] | < 1000 nM | < 10000 nM | < 1000 nM | – | – | –
CN(C)C1CN(c2cnc3ccc(-c4ccc5oc(N)nc5c4)cc3n2)C1 [compound 366] | < 100 nM | < 10000 nM | < 10000 nM | – | – | –
CN1CCN(C(=O)c2cnn3ccc(-c4ccc5oc(N)nc5c4)cc23)CC1 [compound 380] | < 1000 nM | < 10000 nM | < 10000 nM | – | – | –
COCCN1CCN(c2cnc3ccc(-c4ccc5oc(N)nc5c4)cc3n2)CC1 [compound 387] | < 100 nM | < 1000 nM | < 1000 nM | – | – | –
Nc1nc2cc(-c3ccc4ncc(C(=O)N5CC6(C5)OCCO6)n4c3)ccc2o1 [compound 494] | – | – | – | < 100 nM | < 10000 nM | < 1000 nM

Other lines, results leading:

IC50 (p110α/p85α; [1]) | IC50 (p110β/p85α; [2]) | IC50 (p110γ; [3]) | IC50 (p110α/p85α; read-out: PI3K α In Vitro IC50) | IC50 (p110β/p85α; read-out: PI3K β In Vitro IC50) | IC50 (p110γ; read-out: PI3K γ In Vitro IC50) | SMILES
< 100 nM | < 100 nM | < 10000 nM | – | – | – | C[C@H]1CN(c2cnc3ccc(-c4ccc5oc(N)nc5c4)cc3c2)CCN1 [compound 396]
– | – | – | < 100 nM | < 10000 nM | < 10000 nM | Nc1nc2cc(-c3ccc4ncc(C(=O)N5CCOCC5)n4c3)cnc2o1 [compound 400]
– | – | – | < 10000 nM | < 10000 nM | < 1000 nM | Nc1nc2cc(-c3ccc4c(N)n[nH]c4c3)ccc2o1 [compound 428]
– | – | – | < 10000 nM | < 10000 nM | < 10000 nM | CC(=O)Nc1n[nH]c2cc(-c3ccc4oc(N)nc4c3)ccc12 [compound 430]
– | – | – | < 10000 nM | < 1000 nM | < 100 nM | Nc1nc2cc(-c3cc(F)c4oc(N)nc4c3)ccc2o1 [compound 432]
– | – | – | < 10000 nM | < 10000 nM | < 100 nM | CC(=O)Nc1nc2cc(-c3cc(F)c4oc(N)nc4c3)ccc2s1 [compound 435]
– | – | – | < 10000 nM | < 1000 nM | < 1000 nM | Nc1nc2cc(-c3ccc4sc(N)nc4c3)cc(F)c2o1 [compound 437]
– | – | – | < 1000 nM | < 1000 nM | < 100 nM | Cc1cc(-c2ccc3nc(N)oc3c2)cn2c(C(=O)N3CCOCC3)cnc12 [compound 449]
– | – | – | < 100 nM | < 10000 nM | < 100 nM | Nc1nc2cc(-c3ccc4ncc(C(=O)N5CC(F)C5)n4c3)ccc2o1 [compound 468]
– | – | – | < 100 nM | < 1000 nM | < 10000 nM | Nc1nc2cc(-c3ccc4ncc(C(=O)N5CCn6cncc6C5)n4c3)ccc2o1 [compound 493]
– | – | – | < 100 nM | < 10000 nM | < 1000 nM | C[C@@H]1COCCN1C(=O)c1cnc2ccc(-c3ccc4oc(N)nc4c3)cn12 [compound 495]
– | – | – | < 1000 nM | < 10000 nM | < 10000 nM | Nc1nc2c(-c3ccc4ncc(C(=O)N5CCOCC5)n4c3)cccc2o1 [compound 496]
